Where a name gives a salt, the structure may show the parent alone. Each block holds one compound with its values, some of them ahead of it.
Molecular target: T1, recombinant guanylate cyclase reporter cell line (Rattus norvegicus, UniProt P19686+P20595)
T1 construct: expressed in transfected cells; host or cells: recombinant reporter cell line
T1 sequence (P19686 1-690): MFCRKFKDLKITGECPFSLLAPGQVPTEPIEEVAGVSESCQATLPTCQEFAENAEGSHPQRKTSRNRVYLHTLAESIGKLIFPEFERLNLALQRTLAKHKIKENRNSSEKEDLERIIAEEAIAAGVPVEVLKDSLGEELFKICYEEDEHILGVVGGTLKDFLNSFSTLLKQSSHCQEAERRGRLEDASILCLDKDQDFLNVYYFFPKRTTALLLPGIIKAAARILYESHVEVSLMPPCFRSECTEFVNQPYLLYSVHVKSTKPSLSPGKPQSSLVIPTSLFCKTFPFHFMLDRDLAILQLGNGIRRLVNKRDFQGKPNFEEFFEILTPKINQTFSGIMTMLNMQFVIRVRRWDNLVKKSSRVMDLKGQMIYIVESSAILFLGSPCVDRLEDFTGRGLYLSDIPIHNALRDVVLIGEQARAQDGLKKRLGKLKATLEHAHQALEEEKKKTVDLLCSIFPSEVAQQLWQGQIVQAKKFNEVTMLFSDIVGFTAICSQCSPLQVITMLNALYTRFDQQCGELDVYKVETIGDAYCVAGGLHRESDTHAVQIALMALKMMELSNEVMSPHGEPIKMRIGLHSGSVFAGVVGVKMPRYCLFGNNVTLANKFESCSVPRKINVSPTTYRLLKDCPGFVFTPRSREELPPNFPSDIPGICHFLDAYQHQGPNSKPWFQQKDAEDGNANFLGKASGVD
T1 sequence (P20595 1-619): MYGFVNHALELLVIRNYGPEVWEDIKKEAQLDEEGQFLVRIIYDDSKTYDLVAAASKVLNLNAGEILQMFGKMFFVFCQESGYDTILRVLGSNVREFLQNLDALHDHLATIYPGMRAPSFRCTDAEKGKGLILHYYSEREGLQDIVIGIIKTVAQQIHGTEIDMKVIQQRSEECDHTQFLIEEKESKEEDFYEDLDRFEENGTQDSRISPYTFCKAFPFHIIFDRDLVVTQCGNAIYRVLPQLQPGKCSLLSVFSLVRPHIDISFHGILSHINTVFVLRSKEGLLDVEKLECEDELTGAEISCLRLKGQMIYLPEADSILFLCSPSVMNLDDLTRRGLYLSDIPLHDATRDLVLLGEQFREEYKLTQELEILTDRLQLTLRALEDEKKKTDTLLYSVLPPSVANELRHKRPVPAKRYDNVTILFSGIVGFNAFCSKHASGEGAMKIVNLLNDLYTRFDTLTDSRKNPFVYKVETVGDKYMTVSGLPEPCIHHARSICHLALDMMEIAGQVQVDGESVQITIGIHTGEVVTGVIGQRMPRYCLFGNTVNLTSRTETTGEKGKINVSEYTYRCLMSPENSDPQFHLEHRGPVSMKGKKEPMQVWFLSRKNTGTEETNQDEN
Assay: Action on recombinant guanylate cyclase reporter cell line
Assay type: cell-based
Settings: in some cases mean values from individual determinations
In short: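 Each compound is applied to a cell line engineered with a reporter for recombinant guanylate cyclase. The minimal effective concentration is then noted, in part as a mean across separate determinations.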

SMILES: Cc1nc2c(OCc3c(F)cccc3F)cc(Cl)cn2c1C(=O)NCC1(N)CC1 [Example 39, N-[(1-aminocyclopropyl)methyl]-6-chloro-8-[(2,6-difluorobenzyl)oxy]-2-methylimidazo[1,2-a]pyridine-3-carboxamide]
MEC (minimal effective concentration): 0.10 µM

SMILES: Cc1nc2c(OCc3c(F)cccc3F)cccn2c1C(=O)NC(C)CN (single isomer, unassigned) [Example 20, ent-N-(1-Aminopropan-2-yl)-8-[(2,6-difluorobenzyl)oxy]-2-methylimidazo[1,2-a]pyridine-3-carboxamide]
MEC (minimal effective concentration): 1.00 µM

SMILES: Cc1nc2c(OCc3c(F)cccc3F)cc(Cl)cn2c1C(=O)NC1CNCc2ccccc21 (single isomer, unassigned; ent-6) [Example 108, ent-6-chloro-8-[(2,6-difluorobenzyl)oxy]-2-methyl-N-(1,2,3,4-tetrahydroisoquinolin-4-yl)imidazo[1,2-a]pyridine-3-carboxamide]
MEC (minimal effective concentration): 1.00 µM

SMILES: Cc1cc(OC(C)c2c(F)cccc2F)c2nc(C)c(C(=O)NCC(C)(C)N)n2c1 (single isomer, unassigned; enantiomer b) [Example 256, ent-N-(2-Amino-2-methylpropyl)-8-[1-(2,6-difluorophenyl)ethoxy]-2,6-dimethylimidazo[1,2-a]-pyridine-3-carboxamide (Enantiomer B)]
MEC (minimal effective concentration): 3.00 µM

SMILES: Cc1nc2c(OCc3c(F)cccc3F)cccn2c1C(=O)NC(CN)c1ccc(Cl)cc1 (racemic) [Example 14, rac-N-[2-Amino-1-(4-chlorophenyl)ethyl]-8-[(2,6-difluorobenzyl)oxy]-2-methylimidazo[1,2-a]-pyridine-3-carboxamide dihydrochloride]
MEC (minimal effective concentration): 1.00 µM

SMILES: Cc1nc2c(OCc3c(F)cccc3F)cc(Cl)cn2c1C(=O)NCC(C)N (single isomer, unassigned) [Example 29, ent-N-(2-Aminopropyl)-6-chloro-8-[(2,6-difluorobenzyl)oxy]-2-methylimidazo[1,2-a]pyridine-3-carboxamide]
MEC (minimal effective concentration): 0.20 µM

SMILES: COc1ccc(CC(C)(CN)NC(=O)c2c(C)nc3c(OCc4c(F)cccc4F)cc(C)cn23)cc1 (racemic) [Example 386, rac-N-[1-amino-3-(4-methoxyphenyl)-2-methylpropan-2-yl]-8-[(2,6-difluorobenzyl)oxy]-2,6-dimethylimidazo[1,2-a]pyridine-3-carboxamide]
MEC (minimal effective concentration): 0.65 µM

Next, values leading:

MEC (minimal effective concentration): 0.30 µM
SMILES: Cc1cc(OCc2c(F)cccc2F)c2nc(C)c(C(=O)NCC(C)(N)COCc3ccccc3)n2c1 (racemic) [Example 265, rac-N-[2-amino-3-(benzyloxy)-2-methylpropyl]-8-[(2,6-difluorobenzyl)oxy]-2,6-dimethylimidazo[1,2-a]pyridine-3-carboxamide]

MEC (minimal effective concentration): 1.00 µM
SMILES: Cc1cc(OCc2c(F)cccc2F)c2nc(C)c(C(=O)NCC3CNCCO3)n2c1 (racemic) [Example 345, rac-8-[(2,6-Difluorobenzyl)oxy]-2,6-dimethyl-N-(morpholin-2-ylmethyl)imidazo[1,2-a]pyridine-3-carboxamide]

MEC (minimal effective concentration): 0.30 µM
SMILES: Cc1nc2c(OCc3c(F)cccc3F)cc(Cl)cn2c1C(=O)NCC(C)(N)CC(C)C (single isomer, unassigned) [Example 227, ent-N-(2-Amino-2,4-dimethylpentyl)-6-chloro-8-[(2,6-difluorobenzyl)oxy]-2-methylimidazo[1,2-a]pyridine-3-carboxamide]

MEC (minimal effective concentration): 1.00 µM
SMILES: Cc1nc2c(OCc3c(F)cccc3F)cccn2c1C(=O)NCC(N)CC(F)(F)F (single isomer, unassigned) [Example 127, ent-N-(2-Amino-4,4,4-trifluorobutyl)-8-[(2,6-difluorobenzyl)oxy]-2-methylimidazo[1,2-a]pyridine-3-carboxamide]

From patent US20150274719A1, “AMINO-SUBSTITUTED IMIDAZO[1,2-A]PYRIDINECARBOXAMIDES AND THEIR USE” (BAYER PHARMA AKTIENGESELLSCHAFT, priority 2012, published 2015)
